According to patent US20120122727A1, “IN VITRO METHOD FOR PREDICTING WHETHER A COMPOUND IS GENOTOXIC IN VIVO” (priority 2009, published 2012):

Assays:
[1] = system: primary mouse hepatocytes; test: Gene expression in primary mouse hepatocytes, GTX vs non-GTX (four-gene classifier, 24 h)
Description: Hepatocyte cells were incubated and exposed to a compound for 24 h before being harvested for RNA isolation.
The results of the gene expression analysis may then be fed into a statistical software package such as R, Splus, or Microsoft Excel. […] If none or only one of these criteria were met, no point was scored.
For each of the four genes mentioned in the table (1700007K13RIK, GAS2L3, SPC25, DDIT4L), a statistical comparison was made between the normalized expression data for these genes. […] If none or only one of these criteria were met, no point was scored.
For each compound, the sum of the scores for four genes is taken. If this score is 0, a compound can be believed not to be genotoxic. If this score is 1, 2, 3 or 4, a compound is genotoxic.
If none or only one of these criteria were met, no point was scored.

[2] = system: primary mouse hepatocytes; test: Gene expression (Affymetrix Mouse Genome 430 2.0) in primary mouse hepatocytes, true vs false GTX, 24 h and 48 h

Aflatoxin B1 [AFB1]
Ratios of gene expression treated/untreated 1700007K13RIK [1]: 2.912
Ratios of gene expression treated/untreated DDIT4L [1]: 1.616
Ratios of gene expression treated/untreated GAS2L3 [1]: 1.234
Ratios of gene expression treated/untreated SPC25 [1]: 1.523
Total score [1]: 4
score 1700007K13RIK [1]: 1
score DDIT4L [1]: 1
score GAS2L3 [1]: 1
score SPC25 [1]: 1
Gene expression AA561726 average [2]: −1.481
Gene expression AF000969 average [2]: −2.346
Gene expression AF022072 average [2]: −0.9913
Gene expression AF033112 average [2]: 1.033
Gene expression AF055573 average [2]: −2.3744
Gene expression AF069954 average [2]: 0.2361
Gene expression AF297615 average [2]: 2.175
Gene expression AF335325 average [2]: 1.3645
Gene expression AI594683 average [2]: 1.508
Gene expression AI747296 average [2]: −1.533
Gene expression AK005731 average [2]: 2.2191
Gene expression AK007854 average [2]: 1.5416
Gene expression AK010447 average [2]: −1.2768
Gene expression AK010738 average [2]: 0.6579
Gene expression AK014608 average [2]: 1.186
Gene expression AK017734 average [2]: 0.4796
Gene expression AK018383 average [2]: 0.4069
Gene expression AK019979 average [2]: −2.271
Gene expression AV095209 average [2]: −0.6169
Gene expression AV141095 average [2]: −1.192
Gene expression AV173869 average [2]: −0.8814
Gene expression AV216768 average [2]: −1.282
Gene expression AV219418 average [2]: 0.8603
Gene expression AV221299 average [2]: −0.7873
Gene expression AV246296 average [2]: 1.098
Gene expression AV251625 average [2]: 0.5471
Gene expression AV254764 average [2]: 1.543
Gene expression AV327248 average [2]: 1.4639
Gene expression BB009155 average [2]: 1.3686
Gene expression BB027848 average [2]: −0.004367
Gene expression BB043558 average [2]: 1.629
Gene expression BB046347 average [2]: 0.5079
Gene expression BB140436 average [2]: −0.4938
Gene expression BB204486 average [2]: −1.371
Gene expression BB223872 average [2]: 0.5263
Gene expression BB246912 average [2]: −1.2439
Gene expression BB275142 average [2]: 0.5302
Gene expression BB458460 average [2]: −1.132
Gene expression BB463610 average [2]: 1.2472
Gene expression BB730977 average [2]: −0.256
Gene expression BB743970 average [2]: 0.3813
Gene expression BB770528 average [2]: 0.8678
Gene expression BB781615 average [2]: 0.9722
Gene expression BC003284 average [2]: 0.7036
Gene expression BC004827 average [2]: −1.255
Gene expression BC005552 average [2]: −0.7309
Gene expression BC006713 average [2]: 0.942
Gene expression BC010318 average [2]: −0.9565
Gene expression BC012247 average [2]: 0.7954
Gene expression BC012955 average [2]: −1.403
Gene expression BC013893 average [2]: 0.3479
Gene expression BC017615 average [2]: −2.585
Gene expression BC019379 average [2]: −1.263
Gene expression BC019882 average [2]: 1.2329
Gene expression BC021352 average [2]: 1.59
Gene expression BC022148 average [2]: 1.0426
Gene expression BC025169 average [2]: −1.03
Gene expression BC026131 average [2]: −0.4476
Gene expression BC027026 average [2]: 0.6995
Gene expression BC027121 average [2]: 0.9799
Gene expression BC027185 average [2]: 0.0776
Gene expression BE956581 average [2]: 1.7703
Gene expression BF719766 average [2]: 1.1094
Gene expression BG065754 average [2]: 0.6884
Gene expression BG066491 average [2]: −1.6995
Gene expression BG076151 average [2]: 0.4779
Gene expression BG076333 average [2]: −0.3573
Gene expression BG797099 average [2]: 1.027
Gene expression BG967046 average [2]: 0.6249
Gene expression BI651416 average [2]: 1.979
Gene expression BI966443 average [2]: 0.699
Gene expression BM198879 average [2]: 1.579
Gene expression BM200015 average [2]: 0.9342
Gene expression BM230508 average [2]: 0.637
Gene expression BM936480 average [2]: 0.1463
Gene expression BQ174991 average [2]: −0.6262
Gene expression L21027 average [2]: −1.868
Gene expression NM_007556 average [2]: −0.9667
Gene expression NM_007980 average [2]: 0.412
Gene expression NM_007987 average [2]: 0.8772
Gene expression NM_008522 average [2]: 2.271
Gene expression NM_008935 average [2]: −1.772
Gene expression NM_009897 average [2]: 1.054
Gene expression NM_011075 average [2]: 1.1557
Gene expression NM_011176 average [2]: 1.3047
Gene expression NM_011316 average [2]: 0.6494
Gene expression NM_012006 average [2]: 1.7541
Gene expression NM_013642 average [2]: −0.2528
Gene expression NM_013738 average [2]: 0.4146
Gene expression NM_013929 average [2]: 0.7449
Gene expression NM_018881 average [2]: 0.2001
Gene expression NM_019738 average [2]: −2.37
Gene expression NM_030697 average [2]: 1.271
Gene expression NM_053122 average [2]: −2.304
Gene expression NM_134147 average [2]: −1.51
Gene expression NM_134188 average [2]: −0.159
Gene expression X62701 average [2]: −0.6611
Gene expression data AF000969 (Cadps2) [2]: −2.17
Gene expression data AF022072 (Grb10) [2]: −1.2526
Gene expression data AF065917 (Lif) [2]: 0.6896
Gene expression data AF204959 (Cyp3a25 /// LOC622249) [2]: 1.404
Gene expression data AF297615 (Ggta1) [2]: 1.1224
Gene expression data AI594683 (Dmn) [2]: 1.048
Gene expression data AI596632 (Ptprg /// LOC632664) [2]: −1.9945
Gene expression data AI987929 (Ndrg1) [2]: −0.8074
Gene expression data AK004419 (Fbxl17) [2]: −1.365
Gene expression data AK005731 (1700007K13Rik) [2]: 2.2462
Gene expression data AK007766 (1810044A24Rik) [2]: −1.554
Gene expression data AK007854 (1810053B23Rik) [2]: 1.391
Gene expression data AK009736 (Gpr137b /// LOC664862 /// LOC673335) [2]: −0.5076
Gene expression data AK010447 (Smyd3) [2]: −1.2553
Gene expression data AK014608 (4632434l11Rik) [2]: 1.765
Gene expression data AK019979 (2610528E23Rik) [2]: −2.537
Gene expression data AV095209 (Mthfd1l) [2]: −0.8398
Gene expression data AV141095 (1110033M05Rik) [2]: −1.295
Gene expression data AV173571 (1700106N22Rik) [2]: −1.239
Gene expression data AV219418 (Ldhb) [2]: 0.2817
Gene expression data AV223474 (Zdhhc14) [2]: −1.025
Gene expression data AV298304 (Homez) [2]: 1.03
Gene expression data AV327248 (Zfp365 /// LOC674611) [2]: 0.8055
Gene expression data AV377066 (9130221J18Rik) [2]: 1.0883
Gene expression data AW240761 (Tbc1d5) [2]: −1.118
Gene expression data AW543460 (Pard3) [2]: −0.2756
Gene expression data AW543723 [2]: 1.427
Gene expression data AW986246 (Maoa) [2]: −0.3385
Gene expression data BB027848 (4732466D17Rik) [2]: −0.016
Gene expression data BB043558 (9230114K14Rik) [2]: 1.671
Gene expression data BB275142 (AW456874) [2]: 1.009
Gene expression data BB308836 (Ppm1l) [2]: −1.077
Gene expression data BB318221 (Zdhhc14) [2]: −1.0808
Gene expression data BB463610 (4632434l11Rik) [2]: 1.7658
Gene expression data BB526605 (Mipol1) [2]: −0.7181
Gene expression data BB770528 (Rai2) [2]: 0.7477
Gene expression data BB821363 (Scfd2) [2]: −1.354
Gene expression data BC004827 (Psat1) [2]: −1.0032
Gene expression data BC008626 (Icam1) [2]: 1.4158
Gene expression data BC010462 (BC010462) [2]: 0.9985
Gene expression data BC012247 (Dcxr) [2]: 0.3677
Gene expression data BC012260 (Psmf1) [2]: 1.2375
Gene expression data BC015270 (Hist2h3c2) [2]: 1.093
Gene expression data BC016073 (Cdkal1) [2]: −1.1
Gene expression data BC016265 (Ube2e2) [2]: −0.8797
Gene expression data BC019882 (Acaa1b) [2]: 0.4654
Gene expression data BC025501 (Aaas) [2]: 1.14
Gene expression data BC025837 (Sbk1) [2]: 0.4694
Gene expression data BC025915 (Cova1) [2]: −0.642
Gene expression data BC026422 (Tgm1) [2]: 0.8843
Gene expression data BF719766 (Thyn1) [2]: 0.3892
Gene expression data BG065754 (Ccng1) [2]: 0.8383
Gene expression data BG066903 (Kif16b) [2]: −0.5074
Gene expression data BG069873 (Gnb1l) [2]: 0.7276
Gene expression data BG070887 (Gtdc1) [2]: −1.473
Gene expression data BG076151 (Ppm1d) [2]: 0.6026
Gene expression data BG261907 (Large) [2]: −1.119
Gene expression data BI651416 (Cdc42bpg) [2]: 1.8011
Gene expression data BI660702 (Ell3) [2]: 0.4068
Gene expression data BM198879 (Ercc5) [2]: 1.61
Gene expression data BM230508 (A030007D23Rik) [2]: 0.5919
Gene expression data NM_007987 (Fas) [2]: 0.628
Gene expression data NM_008522 (Ltf) [2]: 1.055
Gene expression data NM_008576 (Abcc1) [2]: −0.1885
Gene expression data NM_011176 (St14) [2]: 1.289
Gene expression data NM_011316 (Saa4) [2]: 0.2733
Gene expression data NM_012006 (Acot1) [2]: 1.251
Gene expression data NM_013866 (Zfp385) [2]: 0.9513
Gene expression data NM_018770 (Igsf4a) [2]: −0.439
Gene expression data NM_021451 (Pmaip1) [2]: 1.1
Gene expression data NM_025770 (Atg10) [2]: −1.128
Gene expression data NM_028803 (Gbe1) [2]: −1.004
Gene expression data NM_030697 (Ankrd47) [2]: 1.8143
Gene expression data NM_053168 (Trim11) [2]: 1.268
Gene expression data NM_134188 (Acot2) [2]: 0.01207
Gene expression data Y15910 (Diap2) [2]: −1.889
